Among the data in paper PMC4646981, “Protein Kinase A Governs Oxidative Phosphorylation Kinetics and Oxidant Emitting Potential at Complex I” (Frontiers in Physiology, 2015) are IC50 values, retold here.

This test has as its target T1, complex I (mitochondrial electron transport system; multi-subunit).
T1 construct: gene Mtnd1; native complex I in freeze-fractured fragments of isolated skeletal muscle mitochondria
As to the kind of experiment: NADH oxidation (complex I activity) assay in mitochondrial fragments, dose-response. Type of test: biochemical, Mus musculus.

As for `CC(Sc1nc2ccccc2[nH]1)C(=O)N/N=C/c1cc(Br)ccc1O` (racemic) [KH7], the half-maximal inhibitory concentration (IC50) – broadly, the concentration needed to halve the response being measured – came out at 3.7 µM.
